Assay results reported in US9481654B2, “Compositions and methods for inhibition of the JAK pathway” (Rigel Pharmaceuticals, Inc., priority 2006, dated 2016).

How the values were obtained:
[1] = system: primary human T-cells (IL-2 induced proliferation, JAK-1/JAK-3, Stat-5); test: Primary Human T-Cell Proliferation Assay Stimulated with IL-2 (CellTiter-Glo); assay type: cell-based; conditions: Table III Example 4
In short: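 Pre-activated peripheral-blood T-cells (TCR/CD28 stimulated, IL-2-maintained) were IL-2-depleted, then plated in Yssel's medium with 80 U/mL IL-2 in the cell suspension and compound in duplicate. Proliferation ran 72 h at 37 °C; viable cells quantified by CellTiter-Glo ATP luminescence, with IL-2-omitted wells as unstimulated control.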

[2] = system: IFNγ induced ICAM-1 (CD54) up-regulation in A549 lung epithelial cells (JAK/Stat pathway); test: A549 Epithelial Line Stimulated with IFNγ (ICAM-1 surface expression, flow cytometry); assay type: cell-based, human
Source text: The activity of the compounds of the invention may additionally be characterized by assaying the effect of the 2,4-pyrimidinediamine compounds described herein on A549 lung epithelial cells and U937 cells. A549 lung epithelial cells and U937 cells up-regulate ICAM-1 (CD54) surface expression in response to a variety of different stimuli. Therefore, using ICAM-1 expression as readout, test compound effects on different signaling pathways can be assessed in the same cell type. Stimulation with IL-1β through the IL-1β receptor activates the TRAF6/NFκB pathway resulting in up-regulation of ICAM-1. IFNγ induces ICAM-1 up-regulation through activation of the JAK1/JAK2 pathway. The up-regulation of ICAM-1 can be quantified by flow cytometry across a compound dose curve and EC50 values are calculated. Exemplary assays of this type are described in greater detail in Examples 5 and 6.
A549 lung epithelial cells up-regulate ICAM-1 (CD54) surface expression in response to a variety of different stimuli. Therefore, using ICAM-1 expression as readout, compound effects on different signaling pathways can be assessed in the same cell type. IFNγ up-regulates ICAM-1 through activation of the JAK/Stat pathway. In this example, the up-regulation of ICAM-1 by IFNγ was assessed.
The A549 lung epithelial carcinoma cell line originated from the American Type Culture Collection. Routine culturing was with F12K media (Mediatech Inc., Lenexa, Kans., Cat. No. 10-025-CV) with 10% fetal bovine serum, 100 I.U. penicillin and […] streptomycin (complete F12k media). Cells were incubated in a humidified atmosphere of 5% CO2 at 37° C. Prior to use in the assay, A549 cells were washed with PBS and trypsinized (Mediatech Inc., Cat. No. 25-052-CI) to lift the cells. The trypsin cell suspension was neutralized with complete F12K media and centrifuged to pellet the cells. The cell pellet was resuspended in complete F12K media at a concentration of 2.0×10^5/mL. Cells were seeded at 20,000 per well, 100 μL total volume, in a flat bottom tissue culture plate and allowed to adhere overnight.
On day two, A549 cells were pre-incubated with a 2,4-pyrimidinediamine test compound or DMSO (control) (Sigma-Aldrich, St. Louis, Mo., Catalog No. D2650) for 1 hour. The cells were then stimulated with IFNγ (75 ng/mL) (Peprotech Inc., Rocky Hill, N.J., Cat. No. 300-02) and allowed to incubate for 24 hours. The final test compound dose range was 30 μM to 14 nM in 200 μL F12K media containing 5% FBS, 0.3% DMSO.
On day three, the cell media was removed and the cells were washed with 200 μL PBS (phosphate buffered saline). Each well was trypsinized to dissociate the cells, then neutralized by addition of 200 μL complete F12K media. Cells were pelleted and stained with an APC conjugated mouse anti-human ICAM-1 (CD54) (BD Pharmingen, San Diego, Calif., Catalog #559771) antibody for 20 minutes at 4° C. Cells were washed with ice cold FACS buffer (PBS+2% FBS) and surface ICAM-1 expression was analyzed by flow cytometry. Detection was performed using a BD LSR I System Flow Cytometer, purchased from BD Biosciences of San Jose, Calif. Events were gated for live scatter and the geometric mean was calculated (Becton-Dickinson CellQuest software version 3.3, Franklin Lakes, N.J.). Geometric means were plotted against the compound concentration to generate a dose response curve.

IC50 ([2]; Homo sapiens, A549, Table III Example 5)	Structure (SMILES)	IC50 ([1]; Homo sapiens, T-cell)	IC50 [1]	IC50 ([2]; Table III Example 5)
56.6 µM	C#CCNS(=O)(=O)Cc1ccc(Nc2nc(Nc3ccc(C)c(S(N)(=O)=O)c3)ncc2F)cc1 [Compound I-5, N2-(3-Aminosulfonyl-4-methylphenyl)-5-fluoro-N4-[4-(prop-2-ynylaminosulfonylmethyl)phenyl]-2,4-pyrimidinediamine]	0.12 µM	–	–
–	C#CCNS(=O)(=O)c1ccc(Nc2ncc(C)c(Nc3ccc(CNS(=O)(=O)C4CC4)cc3)n2)cc1 [Compound I-164, N4-(4-cyclopropylsulfonylaminomethyl)phenyl-5-methyl-N2-(4-propargylaminosulfonyl)phenyl-2,4-pyrimidinediamine]	–	0.0328 µM	13.8 µM
–	Cc1ccc(Nc2ncc(C)c(Nc3ccc(CNS(=O)(=O)C4CC4)cc3)n2)cc1S(=O)(=O)NC(C)C [Compound I-189, N4-(4-cyclopropylsulfonylaminomethyl)phenyl-N2-(3-isopropylaminosulfonyl-4-methyl)phenyl-5-methyl-2,4-pyrimidinediamine]	–	0.0344 µM	1.72 µM
–	CCS(=O)(=O)NCc1ccc(Nc2nc(Nc3cccc(S(N)(=O)=O)c3)ncc2C)cc1 [Compound I-21, N2-(3-aminosulfonyl)phenyl-N4-(4-ethylsulfonylaminomethyl)phenyl-5-methyl-2,4-pyrimidinediamine]	–	0.0589 µM	2.49 µM
–	Cc1ccc(Nc2ncc(F)c(Nc3ccc(CNS(=O)(=O)C4CCCCC4)cc3)n2)cc1S(N)(=O)=O [Compound I-73, N2-(3-aminosulfonyl-4-methyl)phenyl-N4-(4-cyclohexylsulfonylaminomethyl)phenyl-5-fluoro-2,4-pyrimidinediamine]	–	0.071 µM	3.57 µM
–	Cc1cnc(Nc2cc(S(N)(=O)=O)cc(S(N)(=O)=O)c2)nc1Nc1ccc(CNS(=O)(=O)C2CC2)cc1 [Compound I-84, N4-(4-cyclopropylsulfonylaminomethyl)phenyl-N2-(3,5-diaminosulfonyl)phenyl-5-methyl-2,4-pyrimidinediamine]	–	0.237 µM	9.53 µM
–	Cc1ccc(Nc2ncc(C)c(Nc3ccc(CCNS(=O)(=O)C4CC4)cc3)n2)cc1S(N)(=O)=O [Compound I-55, N2-(3-aminosulfonyl-4-methyl)phenyl-N4-[4-(2-cyclopropylsulfonylamino)ethyl]phenyl-5-methyl-2,4-pyrimidinediamine]	–	0.0845 µM	3.88 µM
–	Cc1ccc(Nc2ncc(C)c(Nc3ccc(CNS(=O)(=O)C4CC4)cc3)n2)cc1S(N)(=O)=O [Compound I-47, N2-(3-aminosulfonyl-4-methyl)phenyl-N4-(4-cyclopropylsulfonylaminomethyl)phenyl-5-methyl-2,4-pyrimidinediamine]	–	0.0362 µM	2.89 µM
–	Cc1cnc(Nc2ccc(S(N)(=O)=O)cc2)nc1Nc1ccc(CNS(=O)(=O)C(C)C)cc1 [Compound I-123, N2-(4-aminosulfonyl)phenyl-N4-(4-isopropylsulfonylaminomethyl)phenyl-5-methyl-2,4-pyrimidinediamine]	–	0.0429 µM	19 µM
–	Cc1ccc(Nc2ncc(F)c(Nc3ccc(CNS(=O)(=O)CC(F)(F)F)cc3)n2)cc1S(N)(=O)=O [Compound I-50, N2-(3-aminosulfonyl-4-methyl)phenyl-5-fluoro-N4-(4-trifluoroethylsulfonylaminomethyl)phenyl-2,4-pyrimidinediamine]	–	0.0627 µM	9.35 µM
–	Cc1ccc(Nc2ncc(C)c(Nc3ccc(CNS(=O)(=O)C4CC4)cc3)n2)cc1S(=O)(=O)NCc1ccccc1 [Compound I-195, N2-(3-benzylaminosulfonyl-4-methyl)phenyl-N4-(4-cyclopropylsulfonylaminomethyl)phenyl-5-methyl-2,4-pyrimidinediamine]	–	0.104 µM	3.54 µM
–	CNS(=O)(=O)c1ccc(Nc2ncc(C)c(Nc3cccc(CNS(=O)(=O)C4CC4)c3)n2)cc1 [Compound I-207, N4-(3-cyclopropylsulfonylaminomethyl)phenyl-5-methyl-N2-(4-methylaminosulfonyl)phenyl-2,4-pyrimidinediamine]	–	0.158 µM	6.11 µM
–	CCS(=O)(=O)NCc1ccc(Nc2nc(Nc3ccc(C)c(S(N)(=O)=O)c3)ncc2F)cc1 [Compound I-10, N2-(3-aminosulfonyl-4-methyl)phenyl-N4-(4-ethylsulfonylaminomethyl)phenyl-5-fluoro-2,4-pyrimidinediamine]	–	0.0606 µM	29.5 µM
–	CCS(=O)(=O)NCCc1ccc(Nc2nc(Nc3ccc(C)c(S(N)(=O)=O)c3)ncc2C)cc1 [Compound I-40, N2-(3-aminosulfonyl-4-methyl)phenyl-N4-[4-(2-ethylsulfonylamino)ethyl]phenyl-5-methyl-2,4-pyrimidinediamine]	–	0.0924 µM	3.49 µM
–	Cc1ccc(Nc2ncc(C)c(Nc3cccc(CNS(=O)(=O)C4CC4)c3)n2)cc1S(N)(=O)=O [Compound I-52, N2-(3-aminosulfonyl-4-methyl)phenyl-N4-(3-cyclopropylsulfonylaminomethyl)phenyl-5-methyl-2,4-pyrimidinediamine]	–	0.0662 µM	2.55 µM
–	Cc1cnc(Nc2ccc(S(N)(=O)=O)cc2)nc1Nc1cccc(CN(C)S(=O)(=O)C2CC2)c1 [Compound I-124, N2-(4-aminosulfonyl)phenyl-N4-[3-(N-cyclopropylsulfonyl-N-methyl)aminomethyl]phenyl-5-methyl-2,4-pyrimidinediamine]	–	0.132 µM	5.72 µM
–	CCS(=O)(=O)NCc1cccc(Nc2nc(Nc3ccc(C)c(S(N)(=O)=O)c3)ncc2F)c1 [Compound I-13, N2-(3-aminosulfonyl-4-methyl)phenyl-N4-(3-ethylsulfonylaminomethyl)phenyl-5-fluoro-2,4-pyrimidinediamine]	–	0.197 µM	3.63 µM
–	Cc1ccc(Nc2ncc(F)c(Nc3ccc(CNS(=O)(=O)C(C)C)cc3)n2)cc1S(N)(=O)=O [Compound I-67, N2-(3-aminosulfonyl-4-methyl)phenyl-5-fluoro-N4-(4-isopropylsulfonylaminomethyl)phenyl-2,4-pyrimidinediamine]	–	0.0845 µM	3.29 µM
–	NS(=O)(=O)c1ccc(Nc2ncc(F)c(Nc3ccc(CNS(=O)(=O)CC(F)(F)F)cc3)n2)cc1 [Compound I-48, N2-(4-aminosulfonyl)phenyl-5-fluoro-N4-(4-trifluoroethylsulfonylaminomethyl)phenyl-2,4-pyrimidinediamine]	–	0.758 µM	29.9 µM
–	COCCNS(=O)(=O)c1cc(Nc2ncc(C)c(Nc3cccc(CNS(=O)(=O)C4CC4)c3)n2)ccc1C [Compound I-210, N4-(3-cyclopropylsulfonylaminomethyl)phenyl-N2-[3-(2-methoxyethyl)aminosulfonyl-4-methyl]phenyl-5-methyl-2,4-pyrimidinediamine]	–	0.143 µM	2.47 µM
–	CCCN(Cc1ccc(Nc2nc(Nc3cccc(S(N)(=O)=O)c3)ncc2C)cc1)S(=O)(=O)C1CC1 [Compound I-80, N2-(3-aminosulfonyl)phenyl-N4-[4-(N-cyclopropylsulfonyl-N-propylamino)methyl]phenyl-5-methyl-2,4-pyrimidinediamine]	–	0.0463 µM	4.13 µM
–	CCCNS(=O)(=O)c1cc(Nc2ncc(C)c(Nc3ccc(CNS(=O)(=O)C4CC4)cc3)n2)ccc1C [Compound I-187, N4-(4-cyclopropylsulfonylaminomethyl)phenyl-5-methyl-N2-(4-methyl-3-propylaminosulfonyl)phenyl-2,4-pyrimidinediamine]	–	0.101 µM	2.42 µM
